Patent publication US10874743B2, “IRAK degraders and uses thereof” (Kymera Therapeutics, Inc., priority 2017, dated 2020)

What was measured:
[1] = target: T1, IRAK4 (Homo sapiens, UniProt Q9NWZ3); assay: OCI-LY-10 degradation assay (western blot, % IRAK4 degraded after 4 hours); format: cell-based; set-up: endogenous in cells; host or cells: OCI-LY10; conditions: OCI-LY10 cells, 4 hours; for OCI-LY10 % IRAK4 Degradation (0.01 uM): 0.01 uM compound; for OCI-LY10 % IRAK4 Degradation (0.1 uM): 0.1 uM compound; for OCI-LY10 % IRAK4 Degradation (1 uM): 1 uM compound
T1 sequence (Q9NWZ3 1-460): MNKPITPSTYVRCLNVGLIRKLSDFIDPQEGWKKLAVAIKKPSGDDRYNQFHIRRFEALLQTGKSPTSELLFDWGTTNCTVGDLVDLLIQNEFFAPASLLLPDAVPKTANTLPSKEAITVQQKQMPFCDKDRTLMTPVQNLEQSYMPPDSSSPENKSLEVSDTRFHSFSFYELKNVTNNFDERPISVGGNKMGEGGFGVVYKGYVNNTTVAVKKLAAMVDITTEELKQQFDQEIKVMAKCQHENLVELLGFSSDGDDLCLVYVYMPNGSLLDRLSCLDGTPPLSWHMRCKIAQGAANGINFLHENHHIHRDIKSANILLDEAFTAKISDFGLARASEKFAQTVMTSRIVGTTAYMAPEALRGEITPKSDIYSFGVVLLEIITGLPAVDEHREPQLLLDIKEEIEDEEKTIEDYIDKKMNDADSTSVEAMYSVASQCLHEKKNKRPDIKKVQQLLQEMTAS
Outline: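 OCI-LY10 cells (RPMI-1640, 20% FBS, 55 μM 2-ME) treated with compound at 0.003-10 μM final for 4 h at 37° C, then lysed in RIPA buffer. IRAK4 level read by fluorescent western blot (20-25 μg protein) and binned as % degraded: A >50%, B >20-50%, C <20%.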

[2] = target: T1, IRAK4; assay: OCI-LY-10 MSD assay for IRAK4 DC50; format: cell-based; set-up: endogenous in cells; host or cells: OCI-LY10; conditions: OCI-LY10 cells, 4 hr incubation, concentration required to degrade 50% of protein
Outline: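 OCI-Ly10 cells were exposed to compound for 4 hr across a 3-fold, 8-point dilution series. Lysates were made in RIPA buffer, and IRAK4 remaining was measured by MSD sandwich immunoassay with anti-IRAK4 capture and detection antibodies. DC50 was taken from a four-parameter logistic fit.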

OCI-LY10 % IRAK4 Degradation (0.01 uM) [1] | OCI-LY10 % IRAK4 Degradation (0.1 uM) [1] | OCI-LY10 % IRAK4 Degradation (1 uM) [1] | DC50 [2] | Structure (SMILES)
B (>20-50% degradation) | A (>50% degradation) | A (>50% degradation) | < 50 nM | O=C1CCC(n2c(=O)oc3c(CCCOCCOCCNC(=O)c4ccc(-n5cc(NC(=O)c6coc(-c7ccnc(NCC8CC8)c7)n6)c(C(F)F)n5)cc4)cccc32)C(=O)N1 (stereo not drawn) [I-265]
C (<20% degradation) | B (>20-50% degradation) | B (>20-50% degradation) | > 1000 nM | NC(=O)c1nn(-c2ccc(CNCCOCCOCCN3CCC(Nc4cccc5c4C(=O)N(C4CCC(=O)NC4=O)C5=O)CC3)cc2)cc1NC(=O)c1coc(-c2ccnc(NCC3CC3)c2)n1 (stereo not drawn) [I-395]
C (<20% degradation) | C (<20% degradation) | A (>50% degradation) | 50 to 100 nM | CC(=O)O[C@@H]1C[C@@H](C(=O)NCc2ccc(-n3cc(NC(=O)c4coc(-c5ccnc(NCC6CC6)c5)n4)c(C(F)F)n3)cc2)N(C(=O)COCCOCCOCCNc2cccc3c2C(=O)N(C2CCC(=O)NC2=O)C3=O)C1 (stereo partly drawn) [I-288]
A (>50% degradation) | A (>50% degradation) | A (>50% degradation) | < 50 nM | NC(=O)c1nn(-c2ccc(CNCC3CN(CCOCCNc4cccc5c4C(=O)N(C4CCC(=O)NC4=O)C5=O)CCO3)cc2)cc1NC(=O)c1coc(-c2ccnc(NCC(F)(F)F)c2)n1 (stereo not drawn) [I-305, N-[3-carbamoyl-1-[4-[[[4-[2-[2-[[2-(2,6-dioxo-3-piperidyl)-1,3-dioxo-isoindolin-4-yl]amino]ethoxy]ethyl]morpholin-2-yl]methylamino]methyl]phenyl]pyrazol-4-yl]-2-[2-(2,2,2-trifluoroethylamino)-4-pyridyl]oxazole-4-carboxamide]
B (>20-50% degradation) | A (>50% degradation) | A (>50% degradation) | < 50 nM | O=C1CCC(N2C(=O)c3cccc(NCCNCCCCCNC(=O)c4ccc(-n5cc(NC(=O)c6coc(-c7ccnc(NC8CC8)c7)n6)c(C(F)F)n5)cc4)c3C2=O)C(=O)N1 (stereo not drawn) [I-242]

Further lines, the molecule ahead of its results:

Structure (SMILES) | OCI-LY10 % IRAK4 Degradation (0.01 uM) [1] | OCI-LY10 % IRAK4 Degradation (0.1 uM) [1] | OCI-LY10 % IRAK4 Degradation (1 uM) [1] | DC50 [2]
O=C1CCC(N2C(=O)c3ccc(CCCNCc4ccc(-n5cc(NC(=O)c6coc(-c7ccnc(NCC8CC8)c7)n6)c(C(F)F)n5)cc4)cc3C2=O)C(=O)N1 (stereo not drawn) [I-371] | C (<20% degradation) | C (<20% degradation) | B (>20-50% degradation) | > 1000 nM
NC(=O)c1nn(-c2ccc(C(=O)NCCOCCOCCOCCOCCCc3cccc4c3C(=O)N(C3CCC(=O)NC3=O)C4=O)cc2)cc1NC(=O)c1coc(-c2ccnc(NCC(F)(F)F)c2)n1 (stereo not drawn) [I-235] | C (<20% degradation) | A (>50% degradation) | A (>50% degradation) | 50 to 100 nM
Cc1cc(-c2nc(C(=O)Nc3cn(-c4ccc(C(=O)NCCOCCOCCNc5cccc6c5C(=O)N(C5CCC(=O)NC5=O)C6=O)cc4)nc3C(N)=O)co2)ccn1 (stereo not drawn) [I-241] | B (>20-50% degradation) | A (>50% degradation) | A (>50% degradation) | < 50 nM
NC(=O)c1nn(-c2ccc(CNCCOCCCc3cccc4c3C(=O)N(C3CCC(=O)NC3=O)C4=O)cc2)cc1NC(=O)c1coc(-c2ccnc(NCC(F)(F)F)c2)n1 (stereo not drawn) [I-320] | C (<20% degradation) | B (>20-50% degradation) | B (>20-50% degradation) | > 1000 nM
